Assay results as given in ChEMBL document CHEMBL1143439, “Open-chain half-bastadins mimic the effects of cyclic bastadins on calcium homeostasis in cultured neurons” (Bioorg Med Chem Lett, 2008).
Activity calls are given as the source filed them. The rule behind the calls is not given here.

What was measured:
Ryanodine receptor 1 = Ryanodine receptor 1 (Homo sapiens, UniProt P21817); assay: Binding affinity to RYR1 channels by calcium mobilization assay
Rattus norvegicus [1] = species on record: Rattus norvegicus; assay: Activity at RYR2 receptor in rat cerebellar granule neurons assessed as increase in intracellular calcium level at 20 uM; type: cell-based
Rattus norvegicus [2] = species on record: Rattus norvegicus; assay: Activity at RYR2 receptor in rat cerebellar granule neurons assessed activation of [45Ca2+] uptake at 20 uM after 10 mins

Sequence of Ryanodine receptor 1 (P21817 whole entry): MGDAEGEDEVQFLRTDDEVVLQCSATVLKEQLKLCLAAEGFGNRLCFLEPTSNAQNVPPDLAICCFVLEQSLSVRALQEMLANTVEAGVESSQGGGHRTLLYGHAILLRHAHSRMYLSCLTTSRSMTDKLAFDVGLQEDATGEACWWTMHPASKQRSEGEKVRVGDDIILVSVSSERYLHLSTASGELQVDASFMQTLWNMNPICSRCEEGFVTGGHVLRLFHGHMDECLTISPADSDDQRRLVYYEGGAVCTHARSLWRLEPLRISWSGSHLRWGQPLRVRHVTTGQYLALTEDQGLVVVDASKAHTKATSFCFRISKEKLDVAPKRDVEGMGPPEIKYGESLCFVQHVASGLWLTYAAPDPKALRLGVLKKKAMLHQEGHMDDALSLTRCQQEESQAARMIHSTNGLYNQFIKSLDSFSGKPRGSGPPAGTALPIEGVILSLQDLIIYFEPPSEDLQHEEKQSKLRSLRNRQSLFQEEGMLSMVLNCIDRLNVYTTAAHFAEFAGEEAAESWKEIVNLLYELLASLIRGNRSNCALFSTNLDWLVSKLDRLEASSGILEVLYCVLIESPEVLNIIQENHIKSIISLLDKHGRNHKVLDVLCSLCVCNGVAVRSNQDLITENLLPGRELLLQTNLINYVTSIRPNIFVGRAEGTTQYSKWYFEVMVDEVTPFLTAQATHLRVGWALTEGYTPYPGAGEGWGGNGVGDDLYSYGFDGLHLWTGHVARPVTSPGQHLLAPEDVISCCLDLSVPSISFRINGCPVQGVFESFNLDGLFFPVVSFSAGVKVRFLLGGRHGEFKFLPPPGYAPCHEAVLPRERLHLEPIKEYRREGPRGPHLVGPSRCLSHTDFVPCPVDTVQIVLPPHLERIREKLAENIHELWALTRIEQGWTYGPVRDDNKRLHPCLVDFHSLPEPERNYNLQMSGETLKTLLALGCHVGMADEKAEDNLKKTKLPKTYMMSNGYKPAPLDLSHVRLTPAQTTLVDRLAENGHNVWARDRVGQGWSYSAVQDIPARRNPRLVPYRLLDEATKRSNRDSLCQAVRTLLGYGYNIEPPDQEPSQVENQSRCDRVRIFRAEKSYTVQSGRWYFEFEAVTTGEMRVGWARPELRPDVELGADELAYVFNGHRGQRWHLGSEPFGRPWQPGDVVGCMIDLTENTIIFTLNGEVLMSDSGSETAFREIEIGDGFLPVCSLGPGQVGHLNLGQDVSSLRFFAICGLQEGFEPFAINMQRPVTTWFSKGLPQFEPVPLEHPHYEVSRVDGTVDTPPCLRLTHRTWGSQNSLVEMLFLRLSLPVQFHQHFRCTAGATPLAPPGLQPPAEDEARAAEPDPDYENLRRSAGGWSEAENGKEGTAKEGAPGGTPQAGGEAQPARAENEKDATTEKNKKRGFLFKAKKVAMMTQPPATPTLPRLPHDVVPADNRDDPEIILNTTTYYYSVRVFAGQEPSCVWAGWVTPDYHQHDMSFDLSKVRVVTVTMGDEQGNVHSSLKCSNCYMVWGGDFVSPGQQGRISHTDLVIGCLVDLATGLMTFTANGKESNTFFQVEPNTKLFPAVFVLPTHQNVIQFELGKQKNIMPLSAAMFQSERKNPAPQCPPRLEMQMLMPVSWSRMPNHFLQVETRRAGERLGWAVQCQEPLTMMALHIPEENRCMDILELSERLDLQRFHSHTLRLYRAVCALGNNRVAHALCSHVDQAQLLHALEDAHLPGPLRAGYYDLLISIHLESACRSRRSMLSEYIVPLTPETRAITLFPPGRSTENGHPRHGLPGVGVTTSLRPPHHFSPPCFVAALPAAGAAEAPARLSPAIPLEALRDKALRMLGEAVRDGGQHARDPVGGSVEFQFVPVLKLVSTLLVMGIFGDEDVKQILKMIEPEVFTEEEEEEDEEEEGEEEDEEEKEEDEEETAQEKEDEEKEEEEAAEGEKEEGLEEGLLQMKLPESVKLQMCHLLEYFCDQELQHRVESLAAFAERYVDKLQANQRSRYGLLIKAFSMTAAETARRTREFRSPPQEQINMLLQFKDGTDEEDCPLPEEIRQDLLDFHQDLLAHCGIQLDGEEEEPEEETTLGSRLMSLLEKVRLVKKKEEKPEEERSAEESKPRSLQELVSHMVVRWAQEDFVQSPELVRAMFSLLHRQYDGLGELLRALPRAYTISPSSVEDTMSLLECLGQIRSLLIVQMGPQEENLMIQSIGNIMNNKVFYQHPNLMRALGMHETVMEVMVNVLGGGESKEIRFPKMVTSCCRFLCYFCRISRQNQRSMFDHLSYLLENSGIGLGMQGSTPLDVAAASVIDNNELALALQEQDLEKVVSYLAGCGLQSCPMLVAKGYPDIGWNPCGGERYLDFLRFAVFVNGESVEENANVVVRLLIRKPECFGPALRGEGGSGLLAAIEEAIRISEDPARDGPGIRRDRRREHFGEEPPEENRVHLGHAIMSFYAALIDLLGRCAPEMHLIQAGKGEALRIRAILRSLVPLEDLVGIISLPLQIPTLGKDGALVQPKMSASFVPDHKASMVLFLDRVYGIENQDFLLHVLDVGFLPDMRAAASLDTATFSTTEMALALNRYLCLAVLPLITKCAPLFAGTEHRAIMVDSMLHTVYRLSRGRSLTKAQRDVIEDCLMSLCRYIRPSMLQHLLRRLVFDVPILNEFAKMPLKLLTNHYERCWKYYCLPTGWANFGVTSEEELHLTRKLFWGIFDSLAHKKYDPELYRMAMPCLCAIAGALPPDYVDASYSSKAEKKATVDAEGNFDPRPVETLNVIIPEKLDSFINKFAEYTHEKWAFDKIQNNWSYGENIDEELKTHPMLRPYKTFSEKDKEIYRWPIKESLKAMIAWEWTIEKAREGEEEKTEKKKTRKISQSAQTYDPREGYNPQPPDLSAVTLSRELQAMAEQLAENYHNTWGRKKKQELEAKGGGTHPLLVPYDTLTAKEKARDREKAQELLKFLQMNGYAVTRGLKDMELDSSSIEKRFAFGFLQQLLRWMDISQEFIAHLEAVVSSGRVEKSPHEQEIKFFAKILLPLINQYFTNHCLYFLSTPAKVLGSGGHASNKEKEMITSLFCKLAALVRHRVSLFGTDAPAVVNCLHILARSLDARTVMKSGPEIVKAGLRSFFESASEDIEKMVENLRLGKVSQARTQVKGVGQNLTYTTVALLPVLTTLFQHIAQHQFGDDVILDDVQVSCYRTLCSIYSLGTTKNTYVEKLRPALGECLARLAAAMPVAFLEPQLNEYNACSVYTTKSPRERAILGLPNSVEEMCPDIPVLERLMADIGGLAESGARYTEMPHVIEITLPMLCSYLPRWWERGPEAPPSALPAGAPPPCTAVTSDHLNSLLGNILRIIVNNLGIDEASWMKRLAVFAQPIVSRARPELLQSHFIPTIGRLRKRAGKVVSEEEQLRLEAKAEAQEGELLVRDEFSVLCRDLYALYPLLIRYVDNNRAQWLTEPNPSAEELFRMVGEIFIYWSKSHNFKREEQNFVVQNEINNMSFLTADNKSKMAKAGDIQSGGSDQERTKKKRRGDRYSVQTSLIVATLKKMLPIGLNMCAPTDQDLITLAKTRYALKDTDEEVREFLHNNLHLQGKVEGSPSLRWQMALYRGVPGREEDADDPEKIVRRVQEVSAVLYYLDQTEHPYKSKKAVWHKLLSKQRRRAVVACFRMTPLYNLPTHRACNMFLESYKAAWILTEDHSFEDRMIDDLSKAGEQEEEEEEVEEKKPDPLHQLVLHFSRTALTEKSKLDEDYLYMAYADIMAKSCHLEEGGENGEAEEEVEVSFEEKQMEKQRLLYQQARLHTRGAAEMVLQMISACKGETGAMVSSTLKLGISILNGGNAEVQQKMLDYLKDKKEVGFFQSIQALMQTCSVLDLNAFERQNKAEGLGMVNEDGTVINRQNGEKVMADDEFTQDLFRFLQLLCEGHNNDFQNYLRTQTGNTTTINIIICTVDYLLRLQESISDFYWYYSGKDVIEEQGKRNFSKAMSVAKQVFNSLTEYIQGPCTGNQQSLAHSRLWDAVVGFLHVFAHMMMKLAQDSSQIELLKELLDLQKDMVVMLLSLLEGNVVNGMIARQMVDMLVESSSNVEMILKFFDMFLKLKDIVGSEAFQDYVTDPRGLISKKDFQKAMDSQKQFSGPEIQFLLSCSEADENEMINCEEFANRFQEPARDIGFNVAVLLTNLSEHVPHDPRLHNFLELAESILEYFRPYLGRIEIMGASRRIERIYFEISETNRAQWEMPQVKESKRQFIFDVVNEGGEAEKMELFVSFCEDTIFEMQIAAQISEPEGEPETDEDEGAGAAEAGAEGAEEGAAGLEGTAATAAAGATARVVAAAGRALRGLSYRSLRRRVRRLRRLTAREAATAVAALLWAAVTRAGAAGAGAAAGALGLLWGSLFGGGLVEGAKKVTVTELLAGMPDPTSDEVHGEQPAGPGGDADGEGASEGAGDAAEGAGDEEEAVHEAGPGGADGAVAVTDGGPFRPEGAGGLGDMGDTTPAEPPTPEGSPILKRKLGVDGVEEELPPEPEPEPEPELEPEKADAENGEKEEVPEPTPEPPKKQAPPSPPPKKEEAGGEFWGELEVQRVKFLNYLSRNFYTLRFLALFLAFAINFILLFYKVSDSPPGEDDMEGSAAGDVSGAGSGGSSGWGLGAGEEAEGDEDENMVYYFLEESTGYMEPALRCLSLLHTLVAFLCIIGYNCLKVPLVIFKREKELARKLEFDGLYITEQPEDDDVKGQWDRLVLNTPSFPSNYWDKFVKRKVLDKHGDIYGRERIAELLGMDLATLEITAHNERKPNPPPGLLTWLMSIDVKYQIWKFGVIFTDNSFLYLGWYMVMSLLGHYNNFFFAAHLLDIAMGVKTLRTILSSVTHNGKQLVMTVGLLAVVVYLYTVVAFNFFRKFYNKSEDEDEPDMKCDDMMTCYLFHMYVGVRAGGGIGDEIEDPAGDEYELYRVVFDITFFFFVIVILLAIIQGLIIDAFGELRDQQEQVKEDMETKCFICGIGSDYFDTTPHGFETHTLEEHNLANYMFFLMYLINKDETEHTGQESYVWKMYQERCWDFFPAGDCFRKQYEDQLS

Row | IC50 (Ryanodine receptor 1) | Activity (Rattus norvegicus [1]) | EC50 (Ryanodine receptor 1) | SMILES | Activity (Rattus norvegicus [2])
1 | 6 µM |  |  | O=C1CCNC(=O)CCc2ccc(c(Br)c2)Oc2cc(cc(Br)c2O)CCN1 | 
2 |  | Active |  | CCCCNC(=O)/C(Cc1cc(Br)c(Oc2cc(C/C(=N\O)C(=O)NCCCC)cc(Br)c2O)c(Br)c1)=N/O | Active
3 |  |  | 11 µM | O=C1CCc2ccc(c(Br)c2)Oc2cc(cc(Br)c2O)CCN1 | 
4 |  | inactive |  | O=C(NCCc1cc(Br)c(Oc2cc(NC(=O)c3ccccc3)ccc2O)c(Br)c1)c1ccccc1 | 

Row | SMILES | IC50 (Ryanodine receptor 1) | Activity (Rattus norvegicus [1]) | EC50 (Ryanodine receptor 1) | Activity (Rattus norvegicus [2])
5 | O=C1NCCc2cc(Br)c(O)c(c2)Oc2ccc(cc2Br)CCNC(=O)/C(=N\O)Cc2cc(Br)c(O)c(c2)Oc2c(Br)cc(cc2Br)C/C1=N/O |  | Active |  | Active
